Laboratory results taken from ChEMBL document CHEMBL1201862, “PubChem BioAssay data set” (2004).
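Values below derive from 48-hour exposures of cells grown in 96-well plates, with endpoints linearly interpolated between the two concentrations bracketing the appropriate inhibition level. GI50 marks 50% less growth.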 Calls of active or inactive are those of the source. Rule as the data show it: active = GI50 up to about 1.1 µM and inactive = higher.

What was measured:
Assay in all cases: NCI anticancer screen, dose series, 48 h
SN12C = tested on: SN12C
NCI-H460 = tested on: NCI-H460
MDA-MB-435 = tested on: MDA-MB-435
CCRF-CEM = tested on: CCRF-CEM
NCI-H226 = tested on: NCI-H226
NCI/ADR-RES = tested on: NCI/ADR-RES
HL-60 = tested on: HL-60
SK-OV-3 = tested on: SK-OV-3
NCI-H522 = tested on: NCI-H522
Malme-3M = tested on: Malme-3M
KM12 = tested on: KM12
DU-145 = tested on: DU-145
MCF7 = tested on: MCF7
RXF 393 = tested on: RXF 393
SNB-75 = tested on: SNB-75
HCC 2998 = tested on: HCC 2998
HCT-15 = tested on: HCT-15
PC-3 = tested on: PC-3
SW-620 = tested on: SW-620
SK-MEL-2 = tested on: SK-MEL-2

SMILES	GI50 (SN12C)	GI50 (NCI-H460)	GI50 (MDA-MB-435)	GI50 (CCRF-CEM)	GI50 (NCI-H226)	GI50 (NCI/ADR-RES)	GI50 (HL-60)	GI50 (SK-OV-3)	GI50 (NCI-H522)	GI50 (Malme-3M)	GI50 (KM12)	GI50 (DU-145)	GI50 (MCF7)	GI50 (RXF 393)	GI50 (SNB-75)	GI50 (HCC 2998)	GI50 (HCT-15) [µM]	GI50 (PC-3)	GI50 (SW-620)	GI50 (SK-MEL-2)
O=c1c2c3c(sc2nc2n1N=C(c1ccc([N+](=O)[O-])cc1)CS2)CCCC3	> 100 µM (inactive)	> 100 µM (inactive)	> 100 µM (inactive)	> 100 µM (inactive)	> 100 µM (inactive)	> 100 µM (inactive)	> 100 µM (inactive)	> 100 µM (inactive)	> 100 µM (inactive)	> 100 µM (inactive)	> 100 µM (inactive)	> 100 µM (inactive)	> 100 µM (inactive)	> 100 µM (inactive)	> 100 µM (inactive)	> 100 µM (inactive)	> 100	> 100 µM (inactive)	> 100 µM (inactive)	–
COc1ccc2c(c1)CCCN1Cc3cc(OC)c(OC)cc3CC21 (centres undefined)	89.1 µM (inactive)	50.2 µM (inactive)	> 100 µM (inactive)	99.8 µM (inactive)	> 100 µM (inactive)	> 100 µM (inactive)	–	66.2 µM (inactive)	75.5 µM (inactive)	> 100 µM (inactive)	> 100 µM (inactive)	> 100 µM (inactive)	> 100 µM (inactive)	25.6 µM (inactive)	21.4 µM (inactive)	15.8 µM (inactive)	> 100	> 100 µM (inactive)	> 100 µM (inactive)	–
COc1ccc(/C=C2/SC(c3c(O)ccc4ccccc34)N(NC(=O)CCCCCCCCC(=O)NN3C(=O)/C(=C\c4ccc(OC)c(OC)c4)SC3c3c(O)ccc4ccccc34)C2=O)cc1OC (centres undefined)	3.94 µM (inactive)	0.649 µM (active)	11.3 µM (inactive)	0.222 µM (active)	0.855 µM (active)	1.77 µM (inactive)	–	2.24 µM (inactive)	0.472 µM (active)	2 µM (inactive)	5.16 µM (inactive)	1.61 µM (inactive)	1.71 µM (inactive)	3.56 µM (inactive)	8.53 µM (inactive)	5.25 µM (inactive)	0.871	1.48 µM (inactive)	1.53 µM (inactive)	1.08 µM (active)
O=C(Nc1ccc(F)cc1)c1cc2c(cc1Cl)Sc1nccn1S2(=O)=O	51.2 µM (inactive)	33.5 µM (inactive)	59.4 µM (inactive)	> 100 µM (inactive)	> 100 µM (inactive)	> 100 µM (inactive)	–	94.6 µM (inactive)	76.9 µM (inactive)	> 100 µM (inactive)	> 100 µM (inactive)	> 100 µM (inactive)	77.8 µM (inactive)	31.7 µM (inactive)	17.8 µM (inactive)	> 100 µM (inactive)	81.7	90.6 µM (inactive)	> 100 µM (inactive)	> 100 µM (inactive)
C=CCSc1nnc2cc(CN3CCCC3)c(-c3ccc(Cl)cc3)nn12	16.8 µM (inactive)	17.9 µM (inactive)	20 µM (inactive)	45.1 µM (inactive)	11.2 µM (inactive)	23.3 µM (inactive)	17.9 µM (inactive)	20.2 µM (inactive)	18.9 µM (inactive)	22.6 µM (inactive)	24.8 µM (inactive)	20.3 µM (inactive)	16.1 µM (inactive)	15.1 µM (inactive)	19.9 µM (inactive)	–	21.3	17.9 µM (inactive)	26.5 µM (inactive)	19.2 µM (inactive)
Cc1ccc(P(c2ccc(C)cc2)c2ccc(C)cc2)cc1	17 µM (inactive)	12.9 µM (inactive)	19.1 µM (inactive)	20.4 µM (inactive)	–	27.5 µM (inactive)	28.8 µM (inactive)	30.4 µM (inactive)	11.4 µM (inactive)	18.3 µM (inactive)	15.8 µM (inactive)	16.5 µM (inactive)	31.3 µM (inactive)	15.5 µM (inactive)	15.2 µM (inactive)	16.1 µM (inactive)	20.2	30.6 µM (inactive)	26.2 µM (inactive)	22.2 µM (inactive)
CN(NC(=O)/C(=C/c1ccc(Cl)cc1)NC(=O)c1ccccc1)c1cn[nH]c(=O)c1Cl	> 100 µM (inactive)	> 100 µM (inactive)	> 100 µM (inactive)	30 µM (inactive)	31.1 µM (inactive)	34 µM (inactive)	12.7 µM (inactive)	> 100 µM (inactive)	17.5 µM (inactive)	54.5 µM (inactive)	55.1 µM (inactive)	> 100 µM (inactive)	> 100 µM (inactive)	> 100 µM (inactive)	59 µM (inactive)	–	> 100	> 100 µM (inactive)	> 100 µM (inactive)	> 100 µM (inactive)
CCC(C)[C@H]1C(=O)N=C(N)N1C(=O)OCc1ccccc1 (some centres undefined)	> 100 µM (inactive)	> 100 µM (inactive)	> 100 µM (inactive)	–	> 100 µM (inactive)	> 100 µM (inactive)	> 100 µM (inactive)	–	> 100 µM (inactive)	> 100 µM (inactive)	> 100 µM (inactive)	> 100 µM (inactive)	> 100 µM (inactive)	> 100 µM (inactive)	> 100 µM (inactive)	> 100 µM (inactive)	> 100	> 100 µM (inactive)	> 100 µM (inactive)	> 100 µM (inactive)
O=C(CCN1CCN2c3ccccc3CCC2C1)c1ccc(F)cc1 (centres undefined)	48.6 µM (inactive)	47.1 µM (inactive)	24 µM (inactive)	36.6 µM (inactive)	34.8 µM (inactive)	36 µM (inactive)	28.5 µM (inactive)	68.2 µM (inactive)	15.4 µM (inactive)	25.1 µM (inactive)	41.1 µM (inactive)	30.1 µM (inactive)	19.8 µM (inactive)	20.6 µM (inactive)	27.2 µM (inactive)	–	20.8	42.8 µM (inactive)	10.3 µM (inactive)	23 µM (inactive)
CSc1nc(NCc2ccccc2)c2cnn(COCCO)c2n1	75 µM (inactive)	39.3 µM (inactive)	27.4 µM (inactive)	51.6 µM (inactive)	55.5 µM (inactive)	53 µM (inactive)	42.7 µM (inactive)	> 100 µM (inactive)	28.6 µM (inactive)	42.9 µM (inactive)	80 µM (inactive)	64.3 µM (inactive)	45.3 µM (inactive)	29 µM (inactive)	0.152 µM (active)	–	–	58.1 µM (inactive)	> 100 µM (inactive)	43.7 µM (inactive)
C=C(Br)C(C)(Cl)CCC(Br)C(C)(C)Cl (centres undefined)	40 µM (inactive)	> 100 µM (inactive)	28.4 µM (inactive)	20.6 µM (inactive)	25.6 µM (inactive)	72.1 µM (inactive)	20.3 µM (inactive)	> 100 µM (inactive)	40.5 µM (inactive)	23.4 µM (inactive)	34.2 µM (inactive)	> 100 µM (inactive)	55.3 µM (inactive)	24.7 µM (inactive)	–	> 100 µM (inactive)	43	39.4 µM (inactive)	36.1 µM (inactive)	–
N#Cc1ccsc1Nc1ccccc1[N+](=O)[O-]	> 100 µM (inactive)	> 100 µM (inactive)	> 100 µM (inactive)	> 100 µM (inactive)	> 100 µM (inactive)	> 100 µM (inactive)	–	> 100 µM (inactive)	63.7 µM (inactive)	> 100 µM (inactive)	> 100 µM (inactive)	> 100 µM (inactive)	> 100 µM (inactive)	86.9 µM (inactive)	> 100 µM (inactive)	> 100 µM (inactive)	> 100	> 100 µM (inactive)	> 100 µM (inactive)	–
CCOC(=O)c1c(N2CCCC2)[nH]c(=O)c(C(c2cccs2)c2c(O)c(C(=O)OCC)c(N3CCCC3)[nH]c2=O)c1O	> 100 µM (inactive)	> 100 µM (inactive)	> 100 µM (inactive)	78.2 µM (inactive)	> 100 µM (inactive)	> 100 µM (inactive)	–	> 100 µM (inactive)	> 100 µM (inactive)	> 100 µM (inactive)	> 100 µM (inactive)	> 100 µM (inactive)	> 100 µM (inactive)	> 100 µM (inactive)	> 100 µM (inactive)	> 100 µM (inactive)	> 100	> 100 µM (inactive)	> 100 µM (inactive)	> 100 µM (inactive)
Cc1cc2nc3ccccc3n2c2nc(N)ccc12	51.2 µM (inactive)	4.02 µM (inactive)	49.5 µM (inactive)	38.5 µM (inactive)	27.2 µM (inactive)	23.2 µM (inactive)	17.6 µM (inactive)	–	31.6 µM (inactive)	–	33 µM (inactive)	52.6 µM (inactive)	44 µM (inactive)	41.2 µM (inactive)	> 100 µM (inactive)	39.6 µM (inactive)	12	40.4 µM (inactive)	25.4 µM (inactive)	65.6 µM (inactive)
O=C1c2cc3c(cc2CC12Cc1cc4c(cc1C2)CCC4)CCC3	> 100 µM (inactive)	> 100 µM (inactive)	> 100 µM (inactive)	> 100 µM (inactive)	–	> 100 µM (inactive)	59.6 µM (inactive)	> 100 µM (inactive)	> 100 µM (inactive)	> 100 µM (inactive)	> 100 µM (inactive)	> 100 µM (inactive)	> 100 µM (inactive)	> 100 µM (inactive)	> 100 µM (inactive)	> 100 µM (inactive)	> 100	> 100 µM (inactive)	> 100 µM (inactive)	> 100 µM (inactive)
